Columns and labels:
[1] = target: T1, PAK4 kinase activity in whole cells (TR-293-KDG, modified HEK 293) (Homo sapiens, UniProt O96013); experiment: PAK4 cellular assay: sandwich ELISA of PAK4-dependent phosphorylation of GEF-H1b in TR-293-KDG cells; assay type: cell-based; conditions: 3-hour exposure
T1 construct: engineered to overexpress both GEF-H1b and the kinase domain (KD) of PAK4; expressed in transfected cells; host or cells: TR-293-KDG (modified HEK 293, Trex system, Invitrogen)
Protocol: A sandwich ELISA method was used to measure the PAK4 kinase activity in whole cells. The level of PAK4-dependent phosphorylation of GEF-H1b can be determined by monitoring the binding of a phosphospecific antibody to GEF-H1b. […] The KD of PAK4 is inducible in this cell line by tetracycline (Trex system, Invitrogen). […] To establish a phosphorylation event on GEF-HL, cells are induced with doxycycline to express the PAK4 KD. […] Candidate substance effect is measured as the ability to block this phosphorylation event.
ELISA plate was prepared by pre-coating the plates with a capture antibody (α-HA-tag mouse monoclonal antibody), blocked with BSA, and washed in 0.1% tween 20 in tris-buffered saline (TBST). […] Cells were then lysed with a modified RIPA buffer supplemented with protease inhibitors. […] Between all subsequent steps plates were washed 4 times with TBST. Detection antibody (recognizing the phospho-specific eptitope on GEF-H1b) was added for 1 hour, followed by addition of an enzyme linked goat α-rabbit secondary antibody for 45 minutes. […] EC50 values were calculated by sigmoid curve fitting using a four-parameter analysis.

[2] = target: T2, PAK4 Kinase domain (PAK4 KD) (Homo sapiens, UniProt O96013); experiment: PAK4 kinase domain enzymatic assay (PK/LDH-coupled, Ki); assay type: biochemical; conditions: PAK4 Kinase Domain
T2 construct: Cloning, expression, and purification of recombinant PAK4 Kinase domain (PAK4 KD); His tag (pET28a(+)/pET24a(+), Ni-NTA purification) (N, cleaved yes); GST (pGST4.5, glutathione column) (N, cleaved yes); made in house; host or cells: E. coli BL21(DE3)
T2 sequence (O96013 321-572 limits assumed): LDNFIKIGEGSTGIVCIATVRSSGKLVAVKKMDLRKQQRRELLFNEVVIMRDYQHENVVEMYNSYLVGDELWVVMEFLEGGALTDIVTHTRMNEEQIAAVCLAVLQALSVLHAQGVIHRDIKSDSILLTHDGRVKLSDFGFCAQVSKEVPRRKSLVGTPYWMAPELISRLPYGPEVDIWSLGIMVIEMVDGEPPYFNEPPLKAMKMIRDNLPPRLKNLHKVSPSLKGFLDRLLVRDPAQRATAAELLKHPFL

T1 sequence (O96013 321-572 limits assumed): as above

## CC(=O)Nc1n[nH]c2c1CN(C(=O)N[C@H](CN(C)C)c1ccccc1)C2(C)C [Example 52, 3-(acetylamino)-N-[(1S)-2-(dimethylamino)-1-phenylethyl]-6,6-dimethyl-4,6-dihydropyrrolo[3,4-c]pyrazole-5(1H)-carboxamide]
[1]
  EC50: 242 nM
[2]
  Ki: 354 nM

## CN(C)CC(OC(=O)N1Cc2c(NC(=O)c3ccc(F)cc3F)n[nH]c2C1(C)C)c1ccccc1 (stereo not drawn) [Example 23, 2-(dimethylamino)-1-phenylethyl 3-[(2,4-difluorobenzoyl)amino]-6,6-dimethyl-4,6-dihydropyrrolo[3,4-c]pyrazole-5(1H)-carboxylate]
[1]
  EC50: 3.9 nM
[2]
  Ki: 122 nM

## CO[C@@H](C)C(=O)Nc1n[nH]c2c1CN(C(=O)O[C@H](CN(C)C)c1ccccc1)C2(C)C [Example 90, (S)-2-(dimethylamino)-1-phenylethyl 3-((S)-2-methoxypropanamido)-6,6-dimethylpyrrolo[3,4-c]pyrazole-5(1H,4H,6H)-carboxylate]
[1]
  EC50: 4 nM
[2]
  Ki: 251 nM

## CC1(C)c2[nH]nc(NC(=O)c3cc4ccccc4s3)c2CN1C(=O)N[C@H](CO)c1ccccc1 [Example 99, 3-[(1-benzothien-2-ylcarbonyl)amino]-N-[(1S)-2-hydroxy-1-phenylethyl]-6,6-dimethyl-4,6-dihydropyrrolo[3,4-c]pyrazole-5(1H)-carboxamide]
[1]
  EC50: 423 nM
[2]
  Ki: 67.9 nM

## CN(C)C[C@@H](NC(=O)N1Cc2c(NC(=O)c3ccc(F)cc3)n[nH]c2C1(C)C)c1ccccc1 [Example 47, N-[(1S)-2-(dimethylamino)-1-phenylethyl]-3-[(4-fluorobenzoyl)amino]-6,6-dimethyl-4,6-dihydropyrrolo[3,4-c]pyrazole-5(1H)-carboxamide]
[1]
  EC50: 34.7 nM
[2]
  Ki: 54.2 nM

## CN(C)C[C@@H](OC(=O)N1Cc2c(NC(=O)C3CCCCO3)n[nH]c2C1(C)C)c1ccccc1 (stereo partly drawn) [Example 16, (1S)-2-(dimethylamino)-1-phenylethyl 6,6-dimethyl-3-[(tetrahydro-2H-pyran-2-ylcarbonyl)amino]-4,6-dihydropyrrolo[3,4-c]pyrazole-5(1H)-carboxylate]
[1]
  EC50: 17.9 nM
[2]
  Ki: 118 nM

## CC1(C)c2[nH]nc(NC(=O)c3ccc(F)cc3)c2CN1C(=O)OC(CN1CCCC1)c1ccccc1 (stereo not drawn) [Example 43, 1-phenyl-2-pyrrolidin-1-ylethyl 3-[(4-fluorobenzoyl)amino]-6,6-dimethyl-4,6-dihydropyrrolo[3,4-c]pyrazole-5(1H)-carboxylate]
[1]
  EC50: 439 nM
[2]
  Ki: 58.1 nM

## CN(C)C[C@@H](OC(=O)N1Cc2c(NC(=O)c3cscn3)n[nH]c2C1(C)C)c1ccccc1 [Example 68, (1S)-2-(dimethylamino)-1-phenylethyl 6,6-dimethyl-3-[(1,3-thiazol-4-ylcarbonyl)amino]-4,6-dihydropyrrolo[3,4-c]pyrazole-5(1H)-carboxylate]
[1]
  EC50: 34.1 nM
[2]
  Ki: 48.2 nM

## CN(C)C[C@@H](OC(=O)N1Cc2c(NC(=O)C3CCCC3)n[nH]c2C1(C)C)c1ccccc1 [Example 12, (1S)-2-(dimethylamino)-1-phenylethyl 3-[(cyclopentylcarbonyl)amino]-6,6-dimethyl-4,6-dihydropyrrolo[3,4-c]pyrazole-5(1H)-carboxylate]
[1]
  EC50: 3.27 nM
[2]
  Ki: 95.5 nM

## CN(C)C[C@@H](OC(=O)N1Cc2c(NC(=O)C(C)(C)C)n[nH]c2C1(C)C)c1ccccc1 [Example 10, (1S)-2-(dimethylamino)-1-phenylethyl 3-[(2,2-dimethylpropanoyl)amino]-6,6-dimethyl-4,6-dihydropyrrolo[3,4-c]pyrazole-5(1H)-carboxylate]
[1]
  EC50: 7.2 nM
[2]
  Ki: 75 nM

## CN(C)CC(OC(=O)N1Cc2c(NC(=O)c3ccc(F)cc3)n[nH]c2C1(C)C)c1cccc2cccnc12 (stereo not drawn) [Example 94, 2-(dimethylamino)-1-(quinolin-8-yl)ethyl 3-(4-fluorobenzamido)-6,6-dimethylpyrrolo[3,4-c] pyrazole-5(1H,4H,6H)-carboxylate]
[1]
  EC50: 413 nM
[2]
  Ki: 161 nM

## CN(C)CC(OC(=O)N1Cc2c(NC(=O)c3ccc(F)cc3)n[nH]c2C1(C)C)c1ccc(C#N)cc1 (stereo not drawn) [Example 95, 1-(4-cyanophenyl)-2-(dimethylamino)ethyl 3-(4-fluorobenzamido)-6,6-dimethylpyrrolo[3,4-c] pyrazole-5(1H,4H,6H)-carboxylate]
[1]
  EC50: 127 nM
[2]
  Ki: 137 nM

## CN(C)C[C@@H](OC(=O)N1Cc2c(NC(=O)Cc3ccc(F)cc3)n[nH]c2C1(C)C)c1ccccn1 [Example 28, (1R)-2-(dimethylamino)-1-pyridin-2-ylethyl 3-{[(4-fluorophenyl)acetyl]amino}-6,6-dimethyl-4,6-dihydropyrrolo[3,4-c]pyrazole-5(1H)-carboxylate]
[1]
  EC50: 280 nM
[2]
  Ki: 73.2 nM

## CN(Cc1ccccc1)C[C@@H](OC(=O)N1Cc2c(NC(=O)c3ccc(F)cc3)n[nH]c2C1(C)C)c1ccccc1 [Example 82, (1S)-2-[benzyl(methyl)amino]-1-phenylethyl 3-[(4-fluorobenzoyl)amino]-6,6-dimethyl-4,6-dihydropyrrolo[3,4-c]pyrazole-5(1H)-carboxylate]
[1]
  EC50: 301 nM
[2]
  Ki: 434 nM

## CN(C)CC(CC(=O)N1Cc2c(NC(=O)c3cccs3)n[nH]c2C1(C)C)c1ccc(Cl)cc1 (stereo not drawn) [Example 97, N-{5-[3-(4-chlorophenyl)-4-(dimethylamino)butanoyl]-6,6-dimethyl-1,4,5,6-tetrahydropyrrolo[3,4-c]pyrazol-3-yl}thiophene-2-carboxamide]
[1]
  EC50: 1510 nM
[2]
  Ki: 110 nM

## CN(C)C[C@@H](OC(=O)N1Cc2c(NC(=O)c3ccc(F)cc3)n[nH]c2C1(C)C)C1CCCCC1 [Example 75, (1S)-1-cyclohexyl-2-(dimethylamino)ethyl 3-[(4-fluorobenzoyl)amino]-6,6-dimethyl-4,6-dihydropyrrolo[3,4-c]pyrazole-5(1H)-carboxylate]
[1]
  EC50: 115 nM
[2]
  Ki: 73.1 nM

## CC(C)C[C@@H](CN(C)C)OC(=O)N1Cc2c(NC(=O)c3ccccc3)n[nH]c2C1(C)C [Example 35, (1S)-1-[(dimethylamino)methyl]-3-methylbutyl 3-(benzoylamino)-6,6-dimethyl-4,6-dihydropyrrolo[3,4-c]pyrazole-5(1H)-carboxylate]
[1]
  EC50: 216 nM
[2]
  Ki: 92.3 nM

## CN(C)C[C@@H](OC(=O)N1Cc2c(NC(=O)c3ccno3)n[nH]c2C1(C)C)c1ccccc1 [Example 85, (S)-2-(dimethylamino)-1-phenylethyl 3-(isoxazole-5-carboxamido)-6,6-dimethylpyrrolo[3,4-c]pyrazole-5(1H,4H,6H)-carboxylate]
[1]
  EC50: 4 nM
[2]
  Ki: 143 nM

## COc1ccc(CC(=O)Nc2n[nH]c3c2CN(C(=O)N[C@H](CN(C)C)c2ccccc2)C3(C)C)cc1 [Example 55, N-[(1S)-2-(dimethylamino)-1-phenylethyl]-3-{[(4-methoxyphenyl)acetyl]amino}-6,6-dimethyl-4,6-dihydropyrrolo[3,4-c]pyrazole-5(1H)-carboxamide]
[1]
  EC50: 148 nM
[2]
  Ki: 13.6 nM

## CN(C)C[C@@H](OC(=O)N1Cc2c(NC(=O)C3CCCO3)n[nH]c2C1(C)C)c1ccccc1 (stereo partly drawn) [Example 15, (1S)-2-(dimethylamino)-1-phenylethyl 6,6-dimethyl-3-[(tetrahydrofuran-2-ylcarbonyl)amino]-4,6-dihydropyrrolo[3,4-c]pyrazole-5(1H)-carboxylate]
[1]
  EC50: 16.1 nM
[2]
  Ki: 145 nM

## CC(C)C(=O)Nc1n[nH]c2c1CN(C(=O)O[C@H](CN(C)C)c1ccccc1)C2(C)C [Example 8, (1S)-2-(dimethylamino)-1-phenylethyl 3-(isobutyrylamino)-6,6-dimethyl-4,6-dihydropyrrolo[3,4-c]pyrazole-5(1H)-carboxylate]
[1]
  EC50: 7.4 nM
[2]
  Ki: 124 nM

## Cc1cc(C(=O)Nc2n[nH]c3c2CN(C(=O)O[C@H](CN(C)C)c2ccccc2)C3(C)C)no1 [Example 86, (S)-2-(dimethylamino)-1-phenylethyl 6,6-dimethyl-3-(5-methylisoxazole-3-carboxamido)pyrrolo[3,4-c]pyrazole-5(1H,4H,6H)-carboxylate]
[1]
  EC50: 18 nM
[2]
  Ki: 68.7 nM

## CN(C)C[C@@H](OC(=O)N1Cc2c(NC(=O)c3ccccc3)n[nH]c2C1(C)C)C1CCCCC1 [Example 32, (1S)-1-cyclohexyl-2-(dimethylamino)ethyl 3-(benzoylamino)-6,6-dimethyl-4,6-dihydropyrrolo[3,4-c]pyrazole-5(1H)-carboxylate]
[1]
  EC50: 162 nM
[2]
  Ki: 57.1 nM

## CN(C)CC(OC(=O)N1Cc2c(NC(=O)c3ccc(F)cc3)n[nH]c2C1(C)C)c1ccccc1 (stereo not drawn) [Example 22]
[1]
  EC50: 14.8 nM
[2]
  Ki: 17.4 nM

## CC1(C)c2[nH]nc(NC(=O)[C@@H]3C[C@H]3c3ccccc3)c2CN1C(=O)N[C@@H]1C[C@H]1c1ccccc1 (relative stereo) [Example 108, 6,6-dimethyl-N-[trans-2-phenylcyclopropyl]-3-({[trans-2-phenylcyclopropyl]-carbonyl}amino)-4,6-dihydropyrrolo[3,4-c]pyrazole-5(1H)-carboxamide]
[1]
  EC50: 1150 nM
[2]
  Ki: 70 nM

## CN(C)C[C@@H](NC(=O)N1Cc2c(n[nH]c2NC(=O)c2nccs2)C1(C)C)c1ccccc1 [Example 71, N-[(1S)-2-(dimethylamino)-1-phenylethyl]-6,6-dimethyl-3-[(1,3-thiazol-2-ylcarbonyl)amino]-4,6-dihydropyrrolo[3,4-c]pyrazole-5(1H)-carboxamide]
[1]
  EC50: 84.1 nM
[2]
  Ki: 101 nM

## COC(C)(C)C(=O)Nc1n[nH]c2c1CN(C(=O)O[C@H](CN(C)C)c1ccccc1)C2(C)C [Example 116, (S)-2-(dimethylamino)-1-phenylethyl 3-(2-methoxy-2-methylpropanamido)-6,6-dimethylpyrrolo[3,4-c]pyrazole-5(1H,4H, 6H)-carboxylate]
[1]
  EC50: 50 nM
[2]
  Ki: 212 nM
